Assay results taken from patent US20230322723A1, “COMPOUNDS FOR SUPPRESSING EGFR MUTANT CANCER AND PHARMACEUTICAL USE THEREOF” (J2H BIOTECH INC., priority 2020, published 2023).

Tests used:
[1] = test system: EGFR^del19+T790M+C797S; assay: EGFR protein degradation test (Western blot) in Ba/F3 cells expressing mutant EGFR del19+T790M+C797S (DTC); assay type: cell-based; conditions: compounds at 0.1 μM and 1 μM, 24 hours, Western blot with EGFR antibody
Experimental: (§1) The ability of the compounds of the present invention to degrade the mutant EGFR protein was confirmed in Ba/F3 cells expressing normal EGFR, mutant EGFR^del19+T790M+C797S or mutant EGFR^L858R+T790M+C797S. A Western blot test using the EGFR antibody was performed.
(§2) Specifically, Ba/F3 cells expressing EGFR were cultured in RPMI 1640 (Gibco, NY, USA) containing 10% fetal bovine serum (FBS, Gibco, NY, USA). Cells expressing normal EGFR, mutant EGFR^del19+T790M+C797S or mutant EGFR^L858R+T790M+C797S were treated with the compounds of the present invention at concentrations of 0.1 μM and 1 μM, respectively, for 24 hours. After that, it was washed twice with phosphate buffered saline (PBS) and SDS-PAGE was performed with 30 μg of cell lysate. After the protein separated on the gel was transferred to a nitrocellulose membrane, the expression level of the EGFR protein was confirmed using an EGFR antibody (Santa Cruz biotechnology, Santacruz, CA, USA). EGFR bands separated by Western blotting were quantitatively analyzed with Fluo-S MultiImager (Bio-Rad, Hercules, CA, USA).

[2] = target: T1, EGFR^L858R+T790M+C797S (Homo sapiens, UniProt P00533, C797S/L858R/T790M); assay: EGFR protein degradation test (Western blot) in Ba/F3 cells expressing mutant EGFR L858R+T790M+C797S (LTC); assay type: cell-based; conditions: compounds at 0.1 μM and 1 μM, 24 hours, Western blot with EGFR antibody
T1 construct: expressed in transfected cells; host or cells: Ba/F3
Experimental: as §1, §2

T1 sequence (P00533 25-1210 T790M/C797S/L858R): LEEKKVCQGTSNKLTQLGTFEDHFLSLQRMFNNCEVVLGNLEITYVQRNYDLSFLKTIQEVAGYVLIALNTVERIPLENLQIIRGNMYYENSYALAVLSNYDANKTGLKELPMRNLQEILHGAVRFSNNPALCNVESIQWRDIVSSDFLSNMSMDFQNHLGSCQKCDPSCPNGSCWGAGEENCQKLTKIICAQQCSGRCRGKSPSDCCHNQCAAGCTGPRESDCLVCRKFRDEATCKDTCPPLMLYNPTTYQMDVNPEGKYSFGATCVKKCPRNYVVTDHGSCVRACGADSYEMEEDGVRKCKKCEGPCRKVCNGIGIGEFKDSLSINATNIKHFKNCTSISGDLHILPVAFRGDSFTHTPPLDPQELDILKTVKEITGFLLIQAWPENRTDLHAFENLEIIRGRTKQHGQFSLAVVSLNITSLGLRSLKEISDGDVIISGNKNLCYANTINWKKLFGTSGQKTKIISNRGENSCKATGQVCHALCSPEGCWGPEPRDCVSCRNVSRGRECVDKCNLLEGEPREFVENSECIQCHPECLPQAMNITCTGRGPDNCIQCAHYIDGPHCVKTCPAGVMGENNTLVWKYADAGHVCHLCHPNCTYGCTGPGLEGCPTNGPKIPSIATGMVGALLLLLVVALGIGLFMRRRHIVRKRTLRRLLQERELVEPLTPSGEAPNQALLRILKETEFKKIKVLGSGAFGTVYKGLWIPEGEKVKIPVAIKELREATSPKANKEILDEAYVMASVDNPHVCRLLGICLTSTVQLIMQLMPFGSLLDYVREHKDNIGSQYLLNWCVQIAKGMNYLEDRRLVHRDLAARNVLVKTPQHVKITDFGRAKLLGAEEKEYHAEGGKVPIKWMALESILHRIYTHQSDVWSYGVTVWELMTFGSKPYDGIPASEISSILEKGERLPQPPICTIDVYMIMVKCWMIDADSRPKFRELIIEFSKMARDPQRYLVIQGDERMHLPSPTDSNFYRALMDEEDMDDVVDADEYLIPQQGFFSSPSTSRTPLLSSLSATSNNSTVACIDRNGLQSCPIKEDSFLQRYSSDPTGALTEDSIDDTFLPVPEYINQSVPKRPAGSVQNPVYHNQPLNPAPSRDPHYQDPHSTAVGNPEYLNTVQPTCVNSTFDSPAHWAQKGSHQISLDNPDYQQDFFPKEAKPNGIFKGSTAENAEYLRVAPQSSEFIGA

Row | LTC (EGFR^L858R+T790M+C797S) protein degradation [2] | SMILES | DTC (EGFR^del19+T790M+C797S) protein degradation [1]
1 | + (Protein degradation 20~80%) | COc1cc(N2CCC(N3CCN(CCOCCOc4cccc5c4C(=O)N(C4CCC(=O)NC4=O)C5=O)CC3)CC2)ccc1Nc1ncc(Cl)c(Nc2ccccc2N(C)S(C)(=O)=O)n1 (stereo not drawn) [Compound 13, N-(2-((5-chloro-2-((4-(4-(4-(2-(2-((2-(2,6-dioxopiperidin-3-yl)-1,3-dioxoisoindolin-4-yl)oxy)ethoxy)ethyl)piperazin-1-yl)piperidin-1-yl)-2-methoxyphenyl)amino)pyrimidin-4-yl)amino)phenyl)N-methylmethanesulfonamide] | + (Protein degradation 20~80%)
2 | + (Protein degradation 20~80%) | COc1cc(N2CCN(CCCCOc3cccc4c3C(=O)N(C3CCC(=O)NC3=O)C4=O)CC2)ccc1Nc1ncc(Cl)c(Nc2ccccc2N(C)S(C)(=O)=O)n1 (stereo not drawn) [Compound 14, N-(2-((5-chloro-2-((4-(4-(4-((2-(2,6-dioxopiperidin-3-yl)-1,3-dioxoisoindolin-4-yl)oxy)butyl)piperazin-1-yl)-2-methoxyphenyl)amino)pyrimidin-4-yl)amino)phenyl)-N-methylmethanesulfonamide] | − (Protein degradation < 20%)
3 | + (Protein degradation 20~80%) | COc1cc(N2CCC(N3CCN(CCCCOc4cccc5c4C(=O)N(C4CCC(=O)NC4=O)C5=O)CC3)CC2)ccc1Nc1ncc(Cl)c(Nc2ccccc2N(C)S(C)(=O)=O)n1 (stereo not drawn) [Compound 15, N-(2-((5-chloro-2-((4-(4-(4-(4-((2-(2,6-dioxopiperidin-3-yl)-1,3-dioxoisoindolin-4-yl)oxy)butyl)piperazin-1-yl)piperidin-1-yl)-2-methoxyphenyl)amino)pyrimidin-4-yl)amino)phenyl)-N-methylmethanesulfonamide] | + (Protein degradation 20~80%)
4 | + (Protein degradation 20~80%) | COc1cc(N2CCN(CCOCCNc3cccc4c3C(=O)N(C3CCC(=O)NC3=O)C4=O)CC2)ccc1Nc1ncc(Cl)c(Nc2ccccc2N(C)S(C)(=O)=O)n1 (stereo not drawn) [Compound 16] | − (Protein degradation < 20%)
5 | − (Protein degradation < 20%) | Cc1ncsc1-c1ccc(CNC(=O)[C@H]2C[C@@H](O)CN2C(=O)[C@@H](NC(=O)CCCCN2CCN(c3ccc(Nc4ncc(Cl)c(Nc5ccccc5N(C)S(C)(=O)=O)n4)cc3F)CC2)C(C)(C)C)cc1 [Compound 17, (2R,4R)-1-((S)-2-(5-(4-(4-((5-chloro-4-((2-(N-methylmethylsulfonamido)phenyl)amino)pyrimidin-2-yl)amino)-2-fluorophenyl)piperazin-1-yl)pentanamido)3,3-dimethylbutanoyl)4-hydroxy-N-(4-(4-methylthiazol-5-yl)benzyl)pyrrolidin-2-carboxamide] | + (Protein degradation 20~80%)

Row | SMILES | LTC (EGFR^L858R+T790M+C797S) protein degradation [2] | DTC (EGFR^del19+T790M+C797S) protein degradation [1]
6 | COc1cc(N2CCN(CCOCCOc3cccc4c3C(=O)N(C3CCC(=O)NC3=O)C4=O)CC2)ccc1Nc1ncc(Cl)c(Nc2ccccc2N(C)S(C)(=O)=O)n1 (stereo not drawn) [Compound 12, N-(2-((5-chloro-2-((4-(4-(2-(2-((2-(2,6-dioxopiperidin-3-yl)-1,3-dioxoisoindolin-4-yl)oxy)ethoxy)ethyl)piperazin-1-yl)-2-methoxyphenyl)amino)pyrimidin-4-yl)amino)phenyl)N-methylmethanesulfonamide] | − (Protein degradation < 20%) | − (Protein degradation < 20%)
